Data taken from US4471116A, “Substituted (10H-phenothiazin-10-L)-propyl-1-piperazines” (Hoffmann-La Roche Inc., priority 1982, dated 1984).
Where a name gives a salt, the structure may show the parent alone. Read-outs that look alike come from different tables or passages of the source.

Tested on: avoidance behavior
Test: Discrete Avoidance - Rats (avoidance block / escape block)
Assay type: in vivo, rat
Conditions: 40 mg/kg po; for inhibition in vivo at 40 mg/kg: Rattus norvegicus
Description: For example, by one procedure, trained rats are placed in experimental chambers equipped with a response lever, a steel grid floor for delivery of electric shock and a loudspeaker for presentation of auditory stimuli. […] The rats can terminate a trial at any point by depression of the response lever. A response during the initial fifteen-second warning tone ends the trial before shock delivery and is considered an avoidance response, while a response occurring during shock delivery is an escape response. Trials are presented every two minutes during a one-hour test session (30 trials per session). […] Compounds are administered to a minimum of three to four rats at each dose level over a range of doses. Rats receive vehicle alone, during control sessions prior to drug administration. Each rat is tested daily or weekly, after a single drug administration, until avoidance behavior returns to pre-drug baseline levels. The session is divided into three consecutive twenty minute (ten trial) segments. Response counts are summed over all subjects at a given dose within each segment. […] This number is expressed as a percentage of the total trials within the segment. […] The lowest dose which produced a 20% block of escape responding (EBD 20) is read from a graphic dose-effect plot. In obtaining these values, percent effect is plotted against the log dose.

[1] = 1 h, 60 min. post-drug, read-out: Percentage Block of Avoidance, 60 min. post-drug
[2] = 24 hrs. post-drug, read-out: Percentage Block of Avoidance, 24 hrs. post-drug
[3] = at the indicated duration, read-out: Avoidance block at Duration of Sig. Activity (AB)
[4] = at time of peak effect, read-out: Avoidance block at Time of Peak Effect (AB)

## CC(C)NCCCCCOc1ccc(OCCN2CCN(CCCN3c4ccccc4Sc4ccc(Cl)cc43)CC2)cc1 [1-[3-(2-chloro-10H--phenothiazin-10-yl)propyl]-4-[2-[4-[5-(1-methylethyl)aminopentoxy]phenoxy]ethyl]piperazine trimaleate]
  Duration of Sig. Activity: 2 weeks
  Time of Peak Effect: 1 days
[1]
  inhibition in vivo at 40 mg/kg: 10%
[2]
  inhibition in vivo at 40 mg/kg: 97%
[3]
  inhibition in vivo at 40 mg/kg: 23%
[4]
  inhibition in vivo at 40 mg/kg: 97%

## CC(C)NCCCCCCOc1ccc(OCCN2CCN(CCCN3c4ccccc4Sc4ccc(Cl)cc43)CC2)cc1 [1-[3-(2-chloro-10H-phenothiazin-10-yl)]-4-[2-[4-[6-(1-methylethyl)aminohexyloxy]phenoxy]ethyl]piperazine trihydrochloride]
  Duration of Sig. Activity: 1 weeks
  Time of Peak Effect: 1 days
[1]
  inhibition in vivo at 40 mg/kg: 23%
[2]
  inhibition in vivo at 40 mg/kg: 40%
[3]
  inhibition in vivo at 40 mg/kg: 30%
[4]
  inhibition in vivo at 40 mg/kg: 40%

## CC(C)NCCCOc1ccc(OCCN2CCN(CCCN3c4ccccc4Sc4ccc(Cl)cc43)CC2)cc1 [1-[3-(2-chloro-10H-phenothiazin-10-yl)propyl]-4-2-[4-[3-(1-methylethyl)aminopropoxy]phenoxy]ethyl]piperazine trihydrochloride]
  Duration of Sig. Activity: 5 weeks
  Time of Peak Effect: 1 days
[1]
  inhibition in vivo at 40 mg/kg: 10%
[2]
  inhibition in vivo at 40 mg/kg: 97%
[3]
  inhibition in vivo at 40 mg/kg: 50%
[4]
  inhibition in vivo at 40 mg/kg: 97%

## CC(C)NCCOc1ccc(OCCN2CCN(CCCN3c4ccccc4Sc4ccc(Cl)cc43)CC2)cc1.Cl.Cl.Cl [1-[3-(2-chloro-10H-phenothiazin-10-yl)propyl]-4-[2-[4-[2-(1-methylethyl)aminoethoxy]phenoxy]ethyl]piperazine trihydrochloride]
  Duration of Sig. Activity: 8 weeks
  Time of Peak Effect: 1 days
[1]
  inhibition in vivo at 40 mg/kg: 10%
[2]
  inhibition in vivo at 40 mg/kg: 100%
[3]
  inhibition in vivo at 40 mg/kg: 37%
[4]
  inhibition in vivo at 40 mg/kg: 100%

## CC(C)NCCc1ccc(OCCN2CCN(CCCN3c4ccccc4Sc4ccc(Cl)cc43)CC2)cc1.O=C(O)/C=C\C(=O)O.O=C(O)/C=C\C(=O)O.O=C(O)/C=C\C(=O)O [1-[3-(2-chloro-10H-phenothiazin-10-yl)propyl]-4-[2-[4-[2-(1-methylethyl)aminoethyl]phenoxy]ethyl]piperazine trimaleate]
  Duration of Sig. Activity: 5 weeks
  Time of Peak Effect: 1 days
[1]
  inhibition in vivo at 40 mg/kg: 10%
[2]
  inhibition in vivo at 40 mg/kg: 100%
[3]
  inhibition in vivo at 40 mg/kg: 80%
[4]
  inhibition in vivo at 40 mg/kg: 100%

## CC(C)NCCCc1ccc(OCCN2CCN(CCCN3c4ccccc4Sc4ccc(Cl)cc43)CC2)cc1.Cl.Cl.Cl [1-[3-(2-chloro-10H-phenothiazin-10-yl)propyl]-4-[2-[4-[3-(1-methylethyl)aminopropyl]phenoxy]ethyl]piperazine trihydrochloride]
  Duration of Sig. Activity: 5 weeks
  Time of Peak Effect: 1 days
[1]
  inhibition in vivo at 40 mg/kg: 45%
[2]
  inhibition in vivo at 40 mg/kg: 100%
[3]
  inhibition in vivo at 40 mg/kg: 55%
[4]
  inhibition in vivo at 40 mg/kg: 100%

## CC(C)NCCCCOc1ccc(OCCN2CCN(CCCN3c4ccccc4Sc4ccc(Cl)cc43)CC2)cc1.Cl.Cl.Cl [1-[3-(2-chloro-10H-phenothiazin-10-yl)propyl]-4-[2-[4-[4-(1-methylethyl)aminobutoxy]phenoxy]ethyl]piperazine trihydrochloride]
  Duration of Sig. Activity: 5 weeks
  Time of Peak Effect: 3 to 10 days
[1]
  inhibition in vivo at 40 mg/kg: 20%
[2]
  inhibition in vivo at 40 mg/kg: 33%
[3]
  inhibition in vivo at 40 mg/kg: 30%
[4]
  inhibition in vivo at 40 mg/kg: 97 to 100%

## CC(C)NCCCCc1ccc(OCCN2CCN(CCCN3c4ccccc4Sc4ccc(Cl)cc43)CC2)cc1 [1-[3-(2-chloro-10H-phenothiazin-10-yl)propyl]-4-[2-[4-[4-(1-methylethyl)aminobutyl]phenoxy]ethyl]piperazine]
  Duration of Sig. Activity: 51/2
  Time of Peak Effect: 1 days
[1]
  inhibition in vivo at 40 mg/kg: 17%
[2]
  inhibition in vivo at 40 mg/kg: 100%
[3]
  inhibition in vivo at 40 mg/kg: 55%
[4]
  inhibition in vivo at 40 mg/kg: 100%
